Data taken from US5683987A, “Therapeutic oligonucleotides targeting the human MDR1 and MRP genes” (The Board of Regents of the University of Nebraska, priority 1995, dated 1997).
Values joined by “and” are separate entries in the source; they are usually repeats but may differ in a detail not shown here. Equal entries are not always repeated. Where two headings read alike, the source gives them in different places.

Legend:
8226/Dox cells [1] = experiment: Sensitization of 8226/Dox cells to Vincristine by an MRP-oligo and MDR-ODNs; type: cell-based, human; conditions: for IC50: read-out: IC50 dose
Experimental: (§1) As shown in this example, several oligos which target the MDR1 gene are able to sensitize multidrug-resistant cell lines to the cytotoxic effects of the chemotherapeutic agent Vincristine. Tumor cells were treated in vitro with 10 μM of the indicated oligo for 4 days at 37° C., then counted, dispensed into individual tubes, and pulsed with Vincristine at various doses (serial 5-fold dilutions) for 3 hrs. The cells were then washed and seeded into 96-well plates (quadruplicate replicates) for pulsing with tritiated thymidine 3 days later. Cells were harvested the next day (=4th day after drug treatment). Tritiated thymidine uptake was analyzed by liquid scintillation.
In this example, experimental conditions were identical to those utilized in obtaining the data in Example 2.

[2] = system: 8226/Dox human myeloma cells; experiment: Sensitivity of 8226/Dox cells to Vincristine with increasing time after Vincristine exposure; type: cell-based; conditions: for IC50: Homo sapiens; for Relative Sensitization (fold increase) Day 5: Day 5 after Vincristine exposure; for Relative Sensitization (fold increase) Day 7: Day 7 after Vincristine exposure; for Relative Sensitization (fold increase) Day 9: Day 9 after Vincristine exposure
Experimental: as §1, with “Tumor cells were treated in vitro with 10 μM of the indicated oligo for 4 days at 37° C., then counted, dispensed into individual tubes, and pulsed with Vincristine at various doses (serial 5-fold dilutions) for 3 hrs.” left out
As shown in this example, it was determined that there was an increase in sensitivity of multidrug-resistant 8226/Dox human myeloma cells to Vincristine with increasing time of incubation following initial exposure to Vincristine. The experimental conditions were identical to those utilized in obtaining the data shown in Table 7, except that the present experiment had two additional time points.

[3] = system: 8226/Dox4 human myeloma cells; experiment: Vincristine IC50 summary after MDR-oligo treatment; type: cell-based; conditions: Homo sapiens, read-out: Vincristine IC50
Experimental: (§2) In vitro testing of MDR-Oligonucleotides was done on the multidrug-resistant (MDR+) RPMI-8226/Dox4 human multiple myeloma cell line (gift of Dr. William Dalton, Univ. Arizona Cancer Ctr., Tucson). Cells were incubated in vitro for 4 days at 37° C. with MDR-oligos at 0.2 μM final concentration; pulsed 18 hr with serial 5-fold dilutions of chemotherapeutic drug (vincristine) from 1×10^-4 M to 2×10^-10 M. Cells were then washed, and incubated for an additional 4 days. Tritiated thymidine (^3 H-TdR) was added for last 18 hr to measure status of cellular proliferation. Controls included MDR^+ 8226 cells similarly treated with vincristine but pretreated either with (a) control ODNs, or (b) culture medium only.

[4] = system: 8226/Dox human myeloma cells; experiment: Sensitization of 8226/Dox cells to Vincristine by MDR-oligos in 5% oxygen; type: cell-based; conditions: for IC50: read-out: IC50 dose
Experimental: as §1

8226/Dox4 cells = experiment: Parsimonious regression model estimates of count and Vincristine IC50; type: cell-based, human; conditions: Homo sapiens, read-out: Estimated IC50
Experimental: as §2
The following mathematical/statistical model was used to analyze the effects of oligos and various drug treatments on targeted tumor cells in these studies. The model is based on experiments which generally involve treatment of tumor cells with one of several ODNs or media only, and with several dose levels of an anti-cancer agent (such as, for example, vincristine (VCR)) or media only. Analysis goals were to model the relationship of cell kill to the dose of VCR (for example), and to compare the effects of the various ODNs.
This final model contained 10 regressor variables.
Various estimates of parameters from the parsimonious model are shown in TABLE 13, which contains the model estimate of the count for each ODN with media only; differences here (when compared to "media only" [no ODN]) reflect the cell kill associated with the ODN alone. TABLE 13 also contains an estimate of IC50 values, the dose of vincristine (VCR) which is estimated to produce an expected count which is exactly half that expected with "media only" [no VCR]. While formal statistical comparisons of the IC50 values of the various ODNs is not possible, an ordering of the ODNs by estimated IC50 values is possible.

8226/Dox cells [5] = experiment: Sensitization of 8226/Dox cells to VCR by MDR-aptameric oligonucleotides; type: cell-based, human; conditions: for Fold Increase in Drug Sensitization: compared to media control
[6] = system: CEM/VLB10 human leukemia cells; experiment: Sensitization of CEM/VLB10 cells to Vincristine by MDR-oligos in 5% oxygen; type: cell-based; conditions: for IC50: read-out: IC50 dose
Experimental: as §1

8226/Dox cells [7] = experiment: Sensitization of 8226/Dox cells to doxorubicin by MDR-oligos (tritiated thymidine uptake); type: cell-based, human; conditions: for IC50: read-out: IC50 dose
Experimental: Multidrug resistant tumor cells were incubated with 15 μM of OL(6)mdr oligo, Cohen(1)mdr oligo or a negative-control (HIV-2) oligo for 4 days at 37° C. in a humidified incubation chamber. Varying doses (5-fold serial dilutions) of doxorubicin (from 1×10^-5 M to 1×10^-8 M) were then added to the culture wells after the cells had been subcultured into media without oligos; cells were then incubated in the same culture environment for an additional three days. Radiolabeled (tritiated) thymidine was added to all cultures for 24 hr before harvest. Each data point is the mean of 4 replicates.

[8] = system: A427 human non-small-cell lung adenocarcinoma cell line; experiment: Sensitization of A427 lung cancer cells to etoposide by MRP-oligos; type: cell-based
Experimental: The human non-small-cell lung adenocarcinoma cell line A427 was treated with oligos at various concentrations for 4 days in vitro. The cells then were pulsed with various concentrations of etoposide (range 1.6×10^-4 to 1×10^-6 M) for 3 hrs. Next, cells were trypsinized and seeded by volume into 96-well plates with 12 replicates per treatment condition. Three days later, tritiated thymidine was added and the cells harvested the next day.

[9] = system: RPMI-8226/Dox4 human multiple myeloma cell line; experiment: Relative activity of MRP-ODNs (summary); type: cell-based; design: key: --: no effect; +: weak positive effect; +++++: strong positive effect
[10] = Vincristine IC50 after 4 days with 10 μM oligo, 5% oxygen
[11] = to Vincristine, 10 μM oligo, 5% oxygen

CC[C@]1(O)C[C@H]2CN(CCc3c([nH]c4ccccc34)[C@@](C(=O)OC)(c3cc4c(cc3OC)N(C=O)[C@H]3[C@@](O)(C(=O)OC)[C@H](OC(C)=O)[C@]5(CC)C=CCN6CC[C@]43[C@@H]65)C2)C1 [Vincristine, reference compound]
IC50 (8226/Dox cells [1]; Homo sapiens): 1100 nM
IC50 ([2]; 120 h, read-out: IC50 Value on Day 5): 440 nM
IC50 ([2]; 168 h, read-out: IC50 Value on Day 7): 7000 nM
IC50 ([2]; 216 h, read-out: IC50 Value on Day 9): 550000 nM
IC50 [3]: 12000 nM
IC50 ([4]; Homo sapiens): 450 nM
IC50 (8226/Dox4 cells): 12800 nM
IC50 (8226/Dox cells [5]; Homo sapiens, VCR, Media (no oligo)): 40000 nM
IC50 ([6]; Homo sapiens): 10000 nM

OL(6)mdr: SEQ ID NO 1: CCCACGCCCC GGCGCTGTTC (CCCACGCCCCGGCGCTGTTC; chemistry not given here)
Relative Sensitization (fold increase) Day 5 ([2]; oligo 2 μM): 1.6 fold increase
Relative Sensitization (fold increase) Day 7 ([2]; oligo 2 μM): 3.5 fold increase
Relative Sensitization (fold increase) Day 9 ([2]; oligo 2 μM): 61 fold increase
Relative Sensitization (fold increase) Day 5 ([2]; oligo 10 μM): 1.8 fold increase
Relative Sensitization (fold increase) Day 7 ([2]; oligo 10 μM): 15.9 fold increase
Relative Sensitization (fold increase) Day 9 ([2]; oligo 10 μM): 550 fold increase
IC50 [4, 10]: 220 nM
Relative sensitization (fold increase) [4, 11]: 2.5 fold increase
IC50 (8226/Dox cells [7]; doxorubicin IC50 after 4 days with 15 μM oligo, tritiated thymidine uptake): 180 nM
Relative sensitization (fold increase) (8226/Dox cells [7]; to doxorubicin, 15 μM oligo, vs medium only): 3.6 fold increase
Etoposide (VP-16) Relative Sensitization (fold increase) ([8]; oligo 1 μM): 0 fold increase
Etoposide (VP-16) Relative Sensitization (fold increase) ([8]; oligo 2.5 μM): 0 fold increase
Etoposide (VP-16) Relative Sensitization (fold increase) ([8]; oligo 5.0 μM): 1.2 fold increase
Etoposide (VP-16) Relative Sensitization (fold increase) ([8]; oligo 10 μM): 1.6 fold increase
IC50 [6, 10]: 120 nM
Relative sensitization (fold increase) [6, 11]: 83 fold increase

MDR-APT-4: MDR-aptameric oligonucleotide, SEQ ID NO 91: ACTCGCCTCCCACGTAGTGCTT (ACTCGCCTCCCACGTAGTGCTT; chemistry not given here)
Fold Increase in Drug Sensitization (8226/Dox cells [5]): > 40,000 fold

OL(8)MRP: SEQ ID NO 64: GCGGGATGAT GATGGCGGCG (GCGGGATGATGATGGCGGCG; chemistry not given here)
IC50 (8226/Dox cells [1]; Vincristine IC50 after oligo treatment, conditions as Example 2): 55 nM
Relative sensitization (fold increase) (8226/Dox cells [1]; to Vincristine, vs medium only): 20 fold increase
Relative Activity [9]: +++++
Etoposide (VP-16) Relative Sensitization (fold increase) ([8]; oligo 2.5 μM): 2.0 fold increase
Etoposide (VP-16) Relative Sensitization (fold increase) ([8]; oligo 5.0 μM): 3.6 fold increase
Etoposide (VP-16) Relative Sensitization (fold increase) ([8]; oligo 10 μM): 18 fold increase and 18.0 fold increase

COc1cccc2c1C(=O)c1c(O)c3c(c(O)c1C2=O)C[C@@](O)(C(=O)CO)C[C@@H]3O[C@H]1C[C@H](N)[C@H](O)[C@H](C)O1 [doxorubicin, reference compound]
IC50 (8226/Dox cells [7]; Homo sapiens): 650 nM

MDR-APT-1: MDR-aptameric oligonucleotide, SEQ ID NO 88: CCCCTGGCGTTACCTCCTCGTTTCT (CCCCTGGCGTTACCTCCTCGTTTCT; chemistry not given here)
Fold Increase in Drug Sensitization (8226/Dox cells [5]): 40,000 fold

MDR-APT-2: MDR-aptameric oligonucleotide, SEQ ID NO 89: TTCGCCTGATTTCCGCCTCCCGTCT (TTCGCCTGATTTCCGCCTCCCGTCT; chemistry not given here)
Fold Increase in Drug Sensitization (8226/Dox cells [5]): 20,000 fold
